Results published in patent US20040234610A1, “Medical device and method for inhalation of aerosolized drug with heliox” (priority 2001, published 2004).

Tested on: adult patients with severe acute exacerbation of asthma
Experiment: Randomized study, albuterol nebulized with heliox 80:20 vs oxygen (control) through semi-closed system, FEV1 spirometry
Assay type: in vivo, human
From the text: Forty-five patients were randomized to receive albuterol nebulized with oxygen (control) versus heliox. At baseline, demographics, outpatient asthma medications, vital signs, oxygen saturation and forced expiratory volume in one second (FEV1) were not different between the two groups. Three consecutive albuterol treatments were given to each group.
The study subjects were adult patients who presented to the Emergency Department at the University of Chicago Medical Center for a severe acute exacerbation of asthma. The study was approved by the Institutional Review Board and all patients enrolled gave written informed consent before beginning the study. Patients 50 years of age or under meeting American Thoracic Society criteria for the diagnosis of asthma were eligible. To assure that only those with severe persistent asthma were studied, only those patients with baseline forced expiratory volume in one second (FEV1) less than fifty percent predicted were enrolled in the study.
The heliox delivery system consisted of a facemask connected to a Y-piece with the nebulizer (Airlife™ Misty-Neb™ Nebulizer) on one limb and a non-rebreather bag on the other limb (as shown in FIG. 1). Heliox flow to the nebulizer was set at 10 liters/minute (via an oxygen calibrated flow meter thus equivalent to 18 L/min Heliox flow). A separate flow of 10 liters/minute of heliox (via an oxygen calibrated flow meter thus equivalent to 18 L/min Heliox flow) was delivered to the non-rebreather bag. […] Each treatment continued until the nebulizer was dry—a period of approximately ten minutes, followed by a fifteen minute washout period. The total time for the study was approximately 90 minutes. Corticosteroid therapy for asthma exacerbations was directed by the emergency room physicians, who were not directly involved in the study.
To assure its accuracy for the purpose of this study, the spirometer was tested every other week using a three liter syringe. In addition, the accuracy of FEV, recordings was tested by having subjects perform forced expiratory maneuvers through the portable spirometer at varying flow rates while it was in-line with a Medical Graphics 1070 pulmonary function testing system. (This system was calibrated daily.) This test was also performed every other week for the first three months of the study and monthly thereafter.
Patients performed a minimum of three forced expiratory maneuvers with values recorded according to the American Thoracic Society recommendations (American Thoracic Society: Standardization of spirometry—1994 update, Am. J. Respir. Crit. Care Med. 152:1107-36 (1995)). All spirometric measurements were made by investigators who were blinded to the gas used for albuterol nebulization. […] Patients were not told explicitly which treatment limb they were randomized to; however, because of potential voice changes while breathing heliox, it was not possible to assure that patients were blinded to which therapy they received.
Demographic data, chronic asthma medications, emergency room corticosteroid administration, vital signs (heart rate, mean arterial pressure, respiratory rate), oxygen saturation by pulse oximetry, emergency room length of stay and hospital admissions from the emergency room were recorded for all patients. Data are expressed as mean±SD when normally distributed and median (interquartile range) when not normally distributed. Interval data were compared using a two-tailed Student's t test or Mann Whitney U test according to normality of distribution, categorical data were compared using Chi square or Fisher Exact test when appropriate. […] The Student-Newman-Keuls test was used to compare differences between heliox and control groups after each nebulization treatment when appropriate. […] A 25% difference in percent change in FEV1 between the control and heliox groups was considered clinically important. […]

Compound: CC(C)(C)NCC(O)c1ccc(O)c(CO)c1 (stereo not drawn) [albuterol]
- median percent change in FEV1 from baseline (control group (nebulized with oxygen 10 L/min), after albuterol treatment 1): 14.6%
- median percent change in FEV1 from baseline (control group (oxygen), after treatment 2): 22.7%
- median percent change in FEV1 from baseline (control group (oxygen), after treatment 3): 26.6%
- median percent change in FEV1 from baseline (heliox group (nebulized with heliox 80:20), after albuterol treatment 1, P=0.007 vs control): 32.4%
- median percent change in FEV1 from baseline (heliox group, after treatment 2, P=0.007 vs control): 51.5%
- median percent change in FEV1 from baseline (heliox group, after treatment 3, P=0.016 vs control): 65.1%
